Like-named read-outs stand apart in the source and are kept apart here.
Key:
[1] = tested on: Smad2/Smad3 phosphorylation; test: Phospho-Smad2/3 Inhibition Assay (western blot), Panc-1; assay type: cell-based, human; conditions: at 10 μM, Panc-1 pancreatic cancer cell line; starred symbols = activation
How it was run: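 Western blotting of lysates (15-50 μg protein) read phosphorylation of Smad2 Ser465/467 and Smad3 Ser423/425. Before lysis, Panc-1 cells got 1 h of 10 ng/ml TGF-b1 following 3 h compound exposure at 37° C (10 μM final, or serial dilutions for IC50, 0.3% DMSO) after overnight 0.5% FBS starvation.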

[2] = tested on: MiaPaca-2 (expressing KRAS G12C mutant); test: Proliferation Assay (Cell Viability Assay); assay type: cell-based; conditions: Homo sapiens, MIA PaCa-2
How it was run: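 After 2–4 days' exposure at 37 °C, 5% CO2 to a single 10 μM final concentration or a dilution series (IC50), percent proliferation inhibition was derived from CellTiter 96 Aqueous One viability readings. The medium contained 0.3% DMSO and 10% FBS. KRAS G12C MiaPaca-2 cells were plated at 2000–5000/well the day before.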

[3] = read-out: Proliferation in MiaPaca-2: IC50

Row | SMILES | % inh of Smad2/3 phosphorylation in Panc-1 [1] | IC50 [2, 3] [nM] | IC50 ([2]; Proliferation assay, MiaPaca-2, read-out: MiaPaca-2 IC50 (nM) Pancreatic) [nM]
1 | Cc1c(-c2ccn(C(C)C)n2)cn2nc(-c3nccn3C)nc(Nc3cnccn3)c12 [Compound 62, 6-(1-Isopropyl-1H-pyrazol-3-yl)-5-methyl-2-(1-methyl-1H-imidazol-2-yl)-N-(pyrazin-2-yl)pyrrolo[2,1-f][1,2,4]triazin-4-amine] | A* (A* = 1-25% activation) | < 150 | 
2 | Cc1c(-c2ccn(C)n2)cn2nc(-c3nccn3C)nc(Nc3cc(-c4cccnc4)ccn3)c12 [Compound 250, N-([3,4′-Bipyridin]-2′-yl)-5-methyl-2-(1-methyl-1H-imidazol-2-yl)-6-(1-methyl-1H-pyrazol-3-yl)pyrrolo[2,1-f][1,2,4]triazin-4-amine] | C* (C* = 46-75% activation) | < 150 | 
3 | Cc1c(-c2ccn(C(C)C)n2)cn2nc(-c3nccn3C)nc(Nc3ccccn3)c12 [Compound 57, 6-(1-Isopropyl-1H-pyrazol-3-yl)-5-methyl-2-(1-methyl-1H-imidazol-2-yl)-N-(pyridin-2-yl)pyrrolo[2,1-f][1,2,4]triazin-4-amine] | A* (A* = 1-25% activation) | < 150 | 
4 | Cc1c(-c2ccn(C)n2)cn2nc(-c3nccn3C)nc(Nc3cc(C(F)(F)F)[nH]n3)c12 [Compound 259, 5-Methyl-2-(1-methyl-1H-imidazol-2-yl)-6-(1-methyl-1H-pyrazol-3-yl)-N-(5-(trifluoromethyl)-1H-pyrazol-3-yl)pyrrolo[2,1-f][1,2,4]triazin-4-amine] | A (A = 1-25% inhibition) | > 1000 | 
5 | COc1cncnc1Nc1nc(-c2nccn2C)nn2cc(-c3ccn(C(C)C)n3)c(C)c12 [Compound 73, 6-(1-Isopropyl-1H-pyrazol-3-yl)-N-(5-methoxypyrimidin-4-yl)-5-methyl-2-(1-methyl-1H-imidazol-2-yl)pyrrolo[2,1-f][1,2,4]triazin-4-amine] | B* (B* = 26-45% activation) | < 150 | 
6 | COc1cccc(-c2cn3nc(-c4nccn4C)nc(N[C@H]4C[C@H](OC)C4)c3c2-c2ccccn2)c1C [Compound 274, 6-(3-Methoxy-2-methylphenyl)-N-((1r,3r)-3-methoxycyclobutyl)-2-(1-methyl-1H-imidazol-2-yl)-5-(pyridin-2-yl)pyrrolo[2,1-f][1,2,4]triazin-4-amine] | D (D = 76-100% inhibition) | 150 to 500 | 
7 | Cc1[nH]nc(Nc2nc(-c3nccn3C)nn3cc(-c4ccn(C)n4)c(C)c23)c1C [Compound 267, N-(4,5-Dimethyl-1H-pyrazol-3-yl)-5-methyl-2-(1-methyl-1H-imidazol-2-yl)-6-(1-methyl-1H-pyrazol-3-yl)pyrrolo[2,1-f][1,2,4]triazin-4-amine] | B (B = 26-45% inhibition) | < 150 | 1 to 10
8 | COc1cccc(Nc2nc(-c3nccn3C)nn3ccc(C)c23)n1 [Compound 38, N-(6-Methoxypyridin-2-yl)-5-methyl-2-(1-methyl-1H-imidazol-2-yl)pyrrolo[2,1-f][1,2,4]triazin-4-amine] | 0 (0 = 0% inhibition) | > 1000 | 
9 | Cc1c(-c2ccn(C)n2)cn2nc(-c3nccn3C)nc(Nc3cc(-c4cccnc4)[nH]n3)c12 [Compound 264, 5-Methyl-2-(1-methyl-1H-imidazol-2-yl)-6-(1-methyl-1H-pyrazol-3-yl)-N-(5-(pyridin-3-yl)-1H-pyrazol-3-yl)pyrrolo[2,1-f][1,2,4]triazin-4-amine] | A (A = 1-25% inhibition) | 150 to 500 | 
10 | COc1cccc(-c2cn3nc(-c4nccn4C)nc(N[C@H]4C[C@H](OC)C4)c3c2-c2ccccc2)c1F [Compound 42, 6-(2-Fluoro-3-methoxyphenyl)-N-((1r,3r)-3-methoxycyclobutyl)-2-(1-methyl-1H-imidazol-2-yl)-5-phenylpyrrolo[2,1-f][1,2,4]triazin-4-amine] | 0 (0 = 0% inhibition) | 510 to 1000 | 
11 | COc1cccc(-c2cn3nc(-c4nccn4C)nc(N[C@H]4C[C@@H](OC)C4)c3c2-c2ccccc2)c1C [Compound 269, 6-(3-Methoxy-2-methylphenyl)-N-((1s,3s)-3-methoxycyclobutyl)-2-(1-methyl-1H-imidazol-2-yl)-5-phenylpyrrolo[2,1-f][1,2,4]triazin-4-amine] | D (D = 76-100% inhibition) | 510 to 1000 | 
12 | Cc1c(-c2ccn(C)n2)cn2nc(-c3nccn3C)nc(Nc3cc(C(C)C)[nH]n3)c12 [Compound 268, N-(5-Isopropyl-1H-pyrazol-3-yl)-5-methyl-2-(1-methyl-1H-imidazol-2-yl)-6-(1-methyl-1H-pyrazol-3-yl)pyrrolo[2,1-f][1,2,4]triazin-4-amine] | C (C = 46-75% inhibition) | < 150 | 
13 | COc1cc(Nc2nc(-c3nccn3C)nn3cc(-c4ccn(C(C)C)n4)c(C)c23)n[nH]1 [Compound 51, 6-(1-Isopropyl-1H-pyrazol-3-yl)-N-(5-methoxy-1H-pyrazol-3-yl)-5-methyl-2-(1-methyl-1H-imidazol-2-yl)pyrrolo[2,1-f][1,2,4]triazin-4-amine] | D (D = 76-100% inhibition) | > 1000 | 
14 | Cn1ccnc1-c1nc(OCCN2CCCC2)c2c(-c3ccccc3)ccn2n1 [Compound 41, 2-(1-Methyl-1H-imidazol-2-yl)-5-phenyl-4-(2-(pyrrolidin-1-yl)ethoxy)pyrrolo[2,1-f][1,2,4]triazine] | A* (A* = 1-25% activation) | > 1000 | 
15 | CO[C@H]1CC[C@@H](Nc2nc(-c3ccccn3)nn3cc(-c4ccn(C(C)C)n4)c(-c4ccccc4)c23)C1 (racemic) [Compound 24, rac 6-(1-Isopropyl-1H-pyrazol-3-yl)-N-((1R,3S)-3-methoxycyclopentyl)-5-phenyl-2-(pyridin-2-yl)pyrrolo[2,1-f][1,2,4]triazin-4-amine] | B (B = 26-45% inhibition) | > 1000 | 
16 | COCC1CCN(c2nc(-c3ccccn3)nn3cc(-c4ccn(C(C)C)n4)c(-c4ccccc4)c23)C1 (racemic) [Compound 25, rac 6-(1-Isopropyl-1H-pyrazol-3-yl)-4-(3-(methoxymethyl)pyrrolidin-1-yl)-5-phenyl-2-(pyridin-2-yl)pyrrolo[2,1-f][1,2,4]triazine] | 0 (0 = 0% inhibition) | > 1000 | 
17 | COc1cccc(-c2cn3nc(-c4nccn4C)nc(N[C@H]4C[C@@H](OC)C4)c3c2-c2ccccc2)c1Cl [Compound 31, 6-(2-Chloro-3-methoxyphenyl)-N-((1s,3s)-3-methoxycyclobutyl)-2-(1-methyl-1H-imidazol-2-yl)-5-phenylpyrrolo[2,1-f][1,2,4]triazin-4-amine] | D (D = 76-100% inhibition) | > 1000 | 
18 | COc1cccc(-c2cn3nc(-c4nccn4C)nc(N[C@@H]4CC[C@@H](OC)C4)c3c2-c2ccccc2)c1F (racemic) [Compound 43, rac 6-(2-Fluoro-3-methoxyphenyl)-N-((1R,3R)-3-methoxycyclopentyl)-2-(1-methyl-1H-imidazol-2-yl)-5-phenylpyrrolo[2,1-f][1,2,4]triazin-4-amine] | D (D = 76-100% inhibition) | > 1000 | 

— US12459951B2, “Compounds that interact with RAS superfamily proteins for treatment of cancers, inflammatory diseases, rasopathies, and fibrotic disease” (SHY Therapeutics, LLC, priority 2022, dated 2025)
